Measured values: patent publication US20120269725A1, “TARGETED RADIOLABELED COMPOUNDS AND THEIR USE FOR THE TREATMENT AND DIAGNOSIS OF CANCER” (priority 2009, published 2012)
Where two headings read alike, the source gives them in different places.

Columns and labels:
[1] = biological target: human BChE (Homo sapiens, UniProt P06276); assay: UV-based BChE inhibition (IC50) assay; assay type: biochemical; settings: non-radioactive compounds, 30 min preincubation, room temperature, pH 7.0
Experimental: Assays employed to determine IC50 were developed by the present inventors and utilized UV based detection. For UV-based assays, a BChE solution in 0.1 M potassium phosphate, pH 7.0 was placed in the desired numbers of wells of a 96-well plate (0.05 mL/well). The investigated compound was diluted in DMSO to produce concentrations from 0 to 10 μM in DMSO and 0.002 mL/well of these dilutions was added to BChE-containing wells. Reaction mixtures were incubated at room temperature for 30 min. The reagent consisting of BChE substrate, 1 mM (2-mercaptoethyl)trimethylammonium iodide butyrate, and 0.5 mM 5,5′-dithio-bis(2-nitrobenzoic acid) in 0.1 M potassium phosphate, pH 7.0 (prepared fresh for each assay) was added, 0.25 mL per well. The mixture was incubated at room temperature and the OD at λ=405 nm was read at 1, 2, 3, 4, 5, 10, and 15 min after the addition of this reagent using the Opsys MR™plate reader (Dynex Technologies, Chantilly, Va.). Data were analyzed using the IC50 nonlinear regression function provided by GraphPad Prism (GraphPad Software, La Jolla, Calif.).
The compound binding of several non-radioactive compounds of the method of the invention were analyzed by the aforementioned human BChE compound binding study to determine their affinity for the therapeutic target (Table 1).

[2] = system: IP OVCAR-3 tumors; assay: Pilot therapy of IP OVCAR-3 tumors in athymic mice; assay type: in vivo; settings: for whole body retention, median / whole body retention: after 14 days; for whole body retention: value with spread in brackets
Source text: In pilot therapy experiments, the effects of unmodified ^125IUdR on the growth of IP OVCAR-3 tumors were compared to the therapeutic effects of the 6b diastereomeric mixture and 7b diastereomeric mixture. The tumor model used in this study, OVCAR-3 cell line, was established from the malignant ascites of a patient with progressive adenocarcinoma of the ovary after many types of chemotherapy including cyclophosphamide, adriamycin, and cisplatin. OVCAR-3 is resistant in vitro to clinically relevant concentrations of adriamycin, melphalan, and cisplatin (Hamilton T C, Young R C, Louie K G, Behrens B C, McKoy W M, Grotzinger K R, Ozols R F. Characterization of a xenograft model of human ovarian carcinoma which produces ascites and intraabdominal carcinomatosis in mice. Cancer Res. 1984; 44:5286-90.). In immunodeficient mice, IP injected OVCAR-3 cells produce malignant ascites, peritoneal carcinomatosis, and serosal and visceral seeding that, if left untreated, leads to death from respiratory compromise, hemorrhage from invasion of intra-abdominal blood vessels, and bowel obstruction. Substantial literature data (nearly 100 publications) confirm that this tumor model has pathogenesis and metastatic properties similar to those of human ovarian cancer.
Mice received IP implants of approximately 2.4×10^8 OVCAR-3 cells/mouse isolated from fresh OVCAR-3 mouse ascites. Cell viability was measured before and after injection, and was ≧90%. Four days after tumor cells were implanted, the mice received SQ transponders and were randomized via a lottery into four groups: NT—untreated controls that received IP injection of PBS; 7b group—receiving IP doses of the 7b diastereomeric mixture in PBS (average 0.4 mCi/mouse (14.8 MBq)); 6b group—receiving IP doses of the 6b diastereomeric mixture in PBS (average dose 0.36 mCi/mouse (13.3 MBq)); and ^125IUdR group—receiving IP doses of ^125IUdR (average 0.43 mCi/mouse (15.9 MBq)) in PBS. Mice were monitored three times per week.
Mice in the 6b group received 0.22 mCi (8.1 MBq) 6b diastereomeric mixture on day 27; and on day 28 mice in ^125IUdR group were treated with additional 0.2 mCi (7.4 MBq) ^125IUdR. Slight differences in the dosing schedule and the administered doses are because of the required large quantities of the compounds. For these experiments, ˜20 mCi of no-carrier added and radiochemically pure compounds were required. Each agent was purified on the analytical reversed phase HPLC column. The use of preparative columns in this case is impractical because the products are recovered in large volumes of acetonitrile-containing solvent that must be evaporated to dryness before the use in mice.
Overall, mice in the 7b group were treated with an average of 0.58 mCi (21.5 MBq) 7b diastereomeric mixture; mice in the 6b group were treated with an average of 0.58 mCi (21.5 MBq) 6b diastereomeric mixture, and mice in the ^125IUdR group were treated with an average of 0.63 mCi (23.3 MBq) ^125IUdR.
The therapy was terminated 7 weeks after the first dosing. Mice were sacrificed for the biodistribution study. Blood and solid tumor were taken for the evaluation of their radioactive content. The peritoneal cavity was lavaged with 2-mL aliquots of PBS, and PBS wash and ascites were collected. One mL of the ascites suspension with cancer cells was taken for gamma counting. The rest of the abdominal fluid was centrifuged and 0.5 mL of the supernatant was reserved for gamma counting. The weight of the cell pellet and the supernatant were determined.
Two weeks after the first dose of radiolabeled compounds, the whole body radioactivity was measured to determine to what extent the additional doses of the compounds may increase the radiation burden and therefore may be detrimental to the animal health (FIG. 11B). The absolute amounts were low and ranged from […] for the 6b group to […] in the 7b group. […]

[3] = system: subcutaneous LS174T tumors (human colorectal adenocarcinoma); assay: Biodistribution, clearance and planar imaging in athymic mice bearing subcutaneous LS174T xenografts; assay type: in vivo, athymic NCr-nu/nu mice
Experimental: The in vivo properties and pharmacology of several compounds of the present invention were initially tested in athymic mice bearing subcutaneous LS174T tumors (human colorectal adenocarcinoma), which have several desirable properties such as rapid growth when implanted subcutaneously (SQ), good vascularization and the availability of considerable historical data for the parent compound IUdR. The clearance rates from blood, tumor, and associated organs were analyzed to determine the structure-pharmacokinetics relationship. The first compounds studied were 6b-fast and 6b-slow. Four-to-six-weeks old female athymic NCr-nu/nu mice (NCI-Frederic, Md., USA) were allowed to acclimate in Applicants' facility after delivery for no less than 5 days. All protocols involving animals were approved by the University of Nebraska Institutional Animal Care and Use Committee. Mice were housed in microisolator cages with free access to sterilized standard rodent diet and water. LS174T cells in 0.1 mL of serum-free medium were implanted SQ at 5×10^6 cells/mouse. One week later identification transponders were implanted, also SQ. Body weights and tumor sizes were monitored twice weekly, and approximately 10 days after the cell implant, mice were randomized for biodistribution studies.
Each of the two isomers, 6b-fast and 6b-slow, was tested independently in separate groups of mice. The comparison to the parent compound, IUdR, was made by co-injecting ^131IUdR with a particular ^125I-labeled diastereomer. Compounds were administered intravenously (IV) via a tail vein.
Biodistribution was conducted at 1 h, 4 h, 24 and 48 h after the administration of radiolabeled compounds (n=6 per time point). The injection doses contained approximately 1 μCi (37 kBq) ^131IUdR and 5 μCi (185 kBq) ^125I-labeled 6b-fast or 6b-slow dissolved in 0.2 mL phosphate buffered saline containing 0.1% bovine serum albumin, pH 7.2 (PBS). All syringes were weighted after loading with the compound solution and immediately after the injection to determine the weight of the injected dose. Triplicate standards of the injected dose were prepared in PBS and counted in a gamma counter just before the beginning of the experiment. The radioactive content of these standards was also determined alongside all tissues after the necropsy to correct the tissue uptake for the decay of the radioisotope. Blood, liver, spleen, heart, lungs, kidneys, brain, tumor and tail were collected during necropsy. Tissues were rinsed in ice-cold saline, patted dry and weighed. The tail was collected to validate the quality of the IV injections.
FIG. 7 presents whole body images for a typical time course distribution (24 h, 48 h, and 72 h) of 6b administered as a diastereomeric mixture in LS174T-bearing athymic mice. The images were acquired 1, 2, and 3 days after the administration of the compound. […] It is also apparent that based on pharmacokinetics, the use of these compounds can be tailored to a specific malignancy and its anatomical location.

Chain of human BChE (P06276 29-602): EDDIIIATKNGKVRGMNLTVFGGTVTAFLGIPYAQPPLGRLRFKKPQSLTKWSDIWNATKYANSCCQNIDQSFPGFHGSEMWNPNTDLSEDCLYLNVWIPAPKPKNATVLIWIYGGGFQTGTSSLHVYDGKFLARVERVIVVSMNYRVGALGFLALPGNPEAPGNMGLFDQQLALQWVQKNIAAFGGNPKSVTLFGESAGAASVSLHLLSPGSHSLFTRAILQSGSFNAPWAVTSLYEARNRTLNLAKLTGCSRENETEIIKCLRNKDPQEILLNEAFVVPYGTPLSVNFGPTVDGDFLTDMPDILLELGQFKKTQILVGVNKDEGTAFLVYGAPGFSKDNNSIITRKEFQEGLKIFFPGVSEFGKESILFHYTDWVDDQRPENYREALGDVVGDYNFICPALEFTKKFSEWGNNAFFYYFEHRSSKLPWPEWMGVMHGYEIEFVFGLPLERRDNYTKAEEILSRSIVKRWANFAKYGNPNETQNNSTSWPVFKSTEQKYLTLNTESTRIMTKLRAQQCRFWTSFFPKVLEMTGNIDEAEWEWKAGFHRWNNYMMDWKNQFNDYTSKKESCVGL

Row | Structure (SMILES) | IC50 ([1]; IC50 (nM)) [nM] | further results
1 | O=c1[nH]c(=O)n(C2CC(O)C(COP3(=O)OCc4ccccc4O3)O2)cc1I (single isomer, unassigned) [6 - fast, 5-Iodo-5′-O-cycloSaligenyl-2′-deoxyuridine Monophosphate] | 1280 | –
2 | O=c1[nH]c(=O)n(C2CC(O)C(COP3(=O)OCc4ccccc4O3)O2)cc1I (single isomer, unassigned) [6 - slow, 5-Iodo-5′-O-cycloSaligenyl-2′-deoxyuridine Monophosphate] | 9.2 | –
3 | Cc1cccc2c1OP(=O)(OCC1OC(n3cc(I)c(=O)[nH]c3=O)CC1O)OC2 (single isomer, unassigned) [7 - fast, 5-Iodo-5′-O-cyclo(3-methylSaligenyl)-2′-deoxyuridine Monophosphate] | > 7000 | –
4 | Cc1cccc2c1OP(=O)(OCC1OC(n3cc(I)c(=O)[nH]c3=O)CC1O)OC2 (single isomer, unassigned) [7 - slow, 5-Iodo-5′-O-cyclo(3-methylSaligenyl)-2′-deoxyuridine Monophosphate] | 61.2 | –
5 | CC(C)(C)c1cc(C(C)(C)C)c2c(c1F)COP(=O)(OC[C@H]1O[C@@H](n3cc(I)c(=O)[nH]c3=O)C[C@@H]1O)O2 (single isomer, unassigned) [8 - fast, 5-Iodo-5′-O-[cyclo-3,5-di-(tert-butyl)-6-fluoroSaligenyl]-2′-deoxyuridine Monophosphate] | > 60000 | –
6 | Cc1cn(C2CC(F)C(COP3(=O)OCc4c(F)c(C(C)(C)C)cc(C(C)(C)C)c4O3)O2)c(=O)[nH]c1=O (single isomer, unassigned) [23 - fast, 5′-O-[cyclo-3,5-Di-(tert-butyl)-6-fluoroSaligenyl]-3′-deoxy-3′-fluorothymidine Monophosphate] | 203 | –
7 | Cc1cn(C2CC(F)C(COP3(=O)OCc4c(F)c(C(C)(C)C)cc(C(C)(C)C)c4O3)O2)c(=O)[nH]c1=O (single isomer, unassigned) [23 - slow, 5′-O-[cyclo-3,5-Di-(tert-butyl)-6-fluoroSaligenyl]-3′-deoxy-3′-fluorothymidine Monophosphate] | 42.6 | –
8 | CC(C)(C)c1cc(C(C)(C)C)c2c(c1F)COP(=O)(OCC1OC(n3cc(I)c(=O)[nH]c3=O)CC1F)O2 (single isomer, unassigned) [24 - fast, 5-Iodo-5′-O-[cyclo-3,5-Di-(tert-butyl)-6-fluoroSaligenyl]-3′-fluoro-2′,3′-dideoxyuridine Monophosphate] | 549 | –
9 | CC(C)(C)c1cc(C(C)(C)C)c2c(c1F)COP(=O)(OCC1OC(n3cc(I)c(=O)[nH]c3=O)CC1F)O2 (single isomer, unassigned) [24 - slow, 5-Iodo-5′-O-[cyclo-3,5-Di-(tert-butyl)-6-fluoroSaligenyl]-3′-fluoro-2′,3′-dideoxyuridine Monophosphate] | 19.8 | –
10 | CC(C)(C)c1cc(C(C)(C)C)c2c(c1F)COP(=O)(OC[C@H]1O[C@@H](n3cc(I)c(=O)[nH]c3=O)C[C@@H]1O)O2 (stereo partly drawn) [8 - slow, 5-Iodo-5′-O-[cyclo-3,5-di-(tert-butyl)-6-fluoroSaligenyl]-2′-deoxyuridine Monophosphate] | – | IC50 ([1]; read-out: IC50): 50.1 nM
11 | Cc1cccc2c1OP(=O)(OC[C@H]1O[C@@H](n3cc([125I])c(=O)[nH]c3=O)C[C@@H]1O)OC2 (stereo partly drawn) [Compound 7b, 5-[^125I]-Iodo-5′-O-cyclo(3-methylSaligenyl)-2′-deoxyuridine Monophosphate] | – | whole body retention, median [2]: 1.25 % ID; whole body retention [2]: 1.21 (0.12) % ID; reduction in solid tumor deposits as compared to ^125IUdR ([2]; diastereomeric mixtures IP, total average 0.58 mCi, 7 weeks after first dose): ~50%; tumor retention compared to ^125IUdR ([2]; necropsy 4 weeks after the boost dose): significantly higher compared to ^125IUdR
12 | CC(C)(C)c1cc(C(C)(C)C)c2c(c1F)COP(=O)(OC[C@H]1O[C@@H](n3cc([125I])c(=O)[nH]c3=O)C[C@@H]1O)O2 (stereo partly drawn) [Compound 8b, 5-[^125I]-Iodo-5′-O-[cyclo-3,5-di-(tert-butyl)-6-fluoroSaligenyl]-2′-deoxyuridine Monophosphate] | – | clearance from blood and normal tissues ([3]; IV administration): very favorable blood clearance curve; major site of normal tissue uptake ([3]; biodistribution data): liver is the major site of the normal tissue uptake
13 | O=c1[nH]c(=O)n([C@H]2C[C@H](O)[C@@H](CO)O2)cc1[125I] [^125IUdR, 5-[^125I]-iodo-2′-deoxyuridine, reference compound] | – | whole body retention, median [2]: 1.08 % ID; whole body retention [2]: 0.97 (0.11) % ID
